Columns and labels:
Type in all cases: cell-based
[1] = test system: Bacillus cereus var mycoide ATCC 11778; experiment: minimum inhibitory concentration; details: Gram + Bacteria
[2] = test system: Bacillus subtilis ATCC 6633; experiment: minimum inhibitory concentration; details: Gram + Bacteria
[3] = test system: Clostridium perfringens ATCC 77454; details: Gram + Bacteria
[4] = test system: Listeria monocytogenes ATCC 7644; experiment: minimum inhibitory concentration; details: Gram + Bacteria
[5] = test system: Staphylococcus aureus ATCC 6538; experiment: minimum inhibitory concentration; details: Gram + Bacteria
[6] = test system: Lactobacillus delbrueckii ssp lactis CECT 372; experiment: minimum inhibitory concentration; details: Gram + Bacteria
[7] = test system: Leuconostoc mesenteroides CETC 912; experiment: minimum inhibitory concentration; details: Gram + Bacteria
[8] = test system: Alcaligenes faecalis ATCC 8750; experiment: minimum inhibitory concentration; details: Gram − Bacteria
[9] = test system: Bordetella bronchiseptica ATCC 4617; experiment: minimum inhibitory concentration; details: Gram − Bacteria
[10] = test system: Escherichia coli ATCC 8739; experiment: minimum inhibitory concentration; details: Gram − Bacteria
[11] = test system: Klebsiella pneumoniae var pneumoniae CECT 178; experiment: minimum inhibitory concentration; details: Gram − Bacteria
[12] = test system: Proteus mirabilis CECT 170; experiment: minimum inhibitory concentration; details: Gram − Bacteria
[13] = test system: Pseudomonas aeruginosa ATCC 9027; experiment: minimum inhibitory concentration; details: Gram − Bacteria
[14] = test system: Salmonella typhimurium ATCC 16028; experiment: minimum inhibitory concentration; details: Gram − Bacteria
[15] = test system: Serratia marcenses CECT 274; experiment: minimum inhibitory concentration; details: Gram − Bacteria
[16] = test system: Mycobacterium phlei ATCC 41423; experiment: minimum inhibitory concentration; details: Gram + Bacteria
[17] = test system: Aspergillus niger ATCC 14604; experiment: minimum inhibitory concentration; details: Fungi
[18] = test system: Aureobasidium pullulans ATCC 9348; experiment: minimum inhibitory concentration; details: Fungi
[19] = test system: Gliocadium virens ATCC 4645; experiment: minimum inhibitory concentration; details: Fungi
[20] = test system: Chaetonium globosum ATCC 6205; experiment: minimum inhibitory concentration; details: Fungi
[21] = test system: Penicillium chrysogenum CECT 2802; experiment: minimum inhibitory concentration; details: Fungi
[22] = test system: Rhodotorula rubra CECT 1158; experiment: minimum inhibitory concentration; details: Yeast
[23] = test system: Saccharomyces cerevisiae ATCC 9763; experiment: minimum inhibitory concentration; details: Yeast
inoculum mixture = experiment: preservative efficacy (Antimicrobial Effectiveness Testing USP 24th Edition), 28 days' check; details: 0.20 g of LAE
Description: This assay consists of the contamination of the protecting formulations with an inoculum mixture of 10^8 cfu/mL concentration, for each of the microorganisms, and the determination of the number of viable cells in the time. This inoculum mixture is composed of the following microorganisms:
The cosmetic composition to be analysed is divided into sterile containers with 50 g of product for each flask. Each container is inoculated with 0.5 mL of inoculum (10^8 cfu/mL). The target concentration is 10^6 cfu/mL, approximately. All the containers are kept at a temperature between 20-25° C. and are protected from light.
The level of the microbial contamination is checked at 0 hours, 7 days, 14 days and 28 days. The number of colonies is evaluated by dilution in buffer peptone with the appropriate neutraliser agent of the preservative. The culture media used for counting the microorganisms are: Soya triptone (35-37° C., 48 hours) for the determination of bacteria; Sabouraud agar with chloramphenicol for fungi and yeast (25° C., 3-5 days).
According to Antimicrobial Effectiveness Testing USP 24th Edition, 1999 (pp. 1809-1811), an antimicrobial preservative is considered to be effective in topically used products made with aqueous bases or vehicles, non-sterile nasal products and emulsions, including those applied to mucous membranes, if: • Not less than 2.0 logarithm reduction from the initial calculated bacteria's count is reached at 14 days and no increase from the 14 days' count at 28 days is detected; and • No increase from the initial calculated count of yeast and moulds is observed.

CCCCCCCCCCCC(=O)N[C@@H](CCCN=C(N)N)C(=O)OCC.Cl [LAE, ethyl ester of the lauramide of the arginine monohydrochloride]
10 ppm: M.I.C. [4]
2 ppm: M.I.C. [16]
128 ppm: M.I.C. [9] | M.I.C. [21]
32 ppm: M.I.C. [1] | M.I.C. [5] | M.I.C. [7] | M.I.C. [10] | M.I.C. [11] | M.I.C. [12] | M.I.C. [14] | M.I.C. [15] | M.I.C. [17] | M.I.C. [19] | M.I.C. [23]
16 ppm: M.I.C. [2] | M.I.C. [3] | M.I.C. [6] | M.I.C. [18] | M.I.C. [20] | M.I.C. [22]
64 ppm: M.I.C. [8] | M.I.C. [13]
no increase: count at 28 days against the 14 days' count (inoculum mixture; Example 1, oil-in-water emulsion with non-ionic surfactant) | count at 28 days against the 14 days' count (inoculum mixture; Example 2, oil-in-water emulsion with an ionic emulsifier) | count at 28 days against the 14 days' count (inoculum mixture; Example 3, water in oil emulsion with non-ionic emulsifiers) | count at 28 days against the 14 days' count (inoculum mixture; Example 4, aqueous solution with a surfactants' mixture (bath gels, disodium cocoamfoacetate)) | count at 28 days against the 14 days' count (inoculum mixture; Example 5, aqueous solution with a surfactants' mixture (bath gels, disodium lauryl sulfosuccinate)) | count at 28 days against the 14 days' count (inoculum mixture; Example 6, hydroalcoholic gel (after-shaving lotions)) | count at 28 days against the 14 days' count (inoculum mixture; Example 7, facial tonic) | count at 28 days against the 14 days' count (inoculum mixture; Example 8, mask-up cleaner) | count at 28 days against the 14 days' count (inoculum mixture; Example 9, fluid oil-in-water emulsion with non-ionic surfactants (body oil)) | count at 28 days against the 14 days' count (inoculum mixture; Example 10, toothpaste formulation) | count at 28 days against the 14 days' count (inoculum mixture; Example 11, aqueous solution with surfactants (shampoos)) | count at 28 days against the 14 days' count (inoculum mixture; Example 12, oil-in-water emulsion with non-ionic surfactants (face cream)) | count at 28 days against the 14 days' count (inoculum mixture; Example 13, oil-in-water emulsion with non-ionic surfactants (sun protector, polysorbate 60)) | count at 28 days against the 14 days' count (inoculum mixture; Example 14, oil-in-water emulsion with non-ionic surfactants (sun protector, cetyl dimethicone copolyol)) | count at 28 days against the 14 days' count (inoculum mixture; Example 15, emulsion for hands care)

Reference: patent publication US8388986B2, “Use of cationic surfactants in cosmetic preparations” (priority 2001, dated 2013)
